Experimental data published in US10308916B2, “Omega-transaminase mutants with activity improvements toward ketones and methods for producing optically pure amines” (Industry-Academic Cooperation Foundation, Yonsei University, priority 2015, dated 2019).
Read-outs that look alike come from different tables or passages of the source.

Key:
Format in all cases: biochemical
OATA W58L [1] = details: pH 7
OATA W58L [2] = system: OATA W58L
OATA W58A [3] = system: OATA W58A
OATA W58L [4] = system: OATA W58L; remark: listed apart in the source
OATA W58A [5] = details: pH 7
OATA W58V = details: pH 7
OATA W58I = details: pH 7
OATA W58M = details: pH 7
OATA L57A [6] = system: OATA L57A
OATA L57A/W58A [7] = system: OATA L57A/W58A
OATA L57A/W58A/V154A [8] = system: OATA L57A/W58A/V154A
OATA L57A/W58A [9] = system: OATA L57A/W58A; remark: listed apart in the source
OATA L57A/W58A/V154A [10] = system: OATA L57A/W58A/V154A; remark: listed apart in the source
OATA L57C/W58L/I261A = system: OATA L57C/W58L/I261A
OATA L57A [11] = system: OATA L57A; remark: listed apart in the source
OATA W58L [12] = system: OATA W58L; remark: listed apart in the source

Row | Compound | Relative activity to acetophenone, OATA W58L (OATA W58L [1]) [%] | Relative reactivity, OATA W58A (OATA W58A [3]) [%] | Relative reactivity, OATA W58L (OATA W58L [4]) [%] | Relative activity to acetophenone, OATA W58A (OATA W58A [5]) [%] | Relative activity to acetophenone, OATA W58V (OATA W58V) [%] | Relative activity to acetophenone, OATA W58I (OATA W58I) [%] | Relative activity to acetophenone, OATA W58M (OATA W58M) [%] | other results
1 | 1-acetonaphthone [Ketone 1i] | 47 | – | – | – | – | – | – | Conversion (%) OATAW58L (OATA W58L [2]): 75%
2 | CC(N)CO (racemic) [DL-Alaninol] | – | 13 | 39 | – | – | – | – | –
3 | CC(C)C(C)N (centres unmarked) [1,2-Dimethylpropylamine] | – | 101 | 305 | – | – | – | – | –
4 | CC(C)CC(C)N (centres unmarked) [1,3-Dimethylbutylamine] | – | 173 | 283 | – | – | – | – | –
5 | COCC(C)N (centres unmarked) [1-Methoxy-2-propylamine] | – | 126 | 119 | – | – | – | – | –
6 | CC(N)CCc1ccccc1 (centres unmarked) [1-Methyl-3-phenylpropylamine] | – | 151 | 202 | – | – | – | – | –
7 | CCC(=O)CO [1-hydroxy-2-butanone] | – | – | – | 9 | 8 | 16 | 21 | –
8 | CC(C)(C)C(N)c1ccccc1 (centres unmarked) [2,2-Dimethyl-1-phenylpropan-1-amine] | – | 3 | 2 | – | – | – | – | –
9 | CCCC(C)N (centres unmarked) [2-Aminopentane] | – | 194 | 272 | – | – | – | – | –
10 | O=C(CO)c1ccccc1 [2-hydroxyacetophenone] | – | – | – | 61 | 70 | 73 | 65 | –
11 | CCC(=O)C(=O)O [2-oxobutanoic acid] | – | – | – | – | – | – | – | Relative activity, OATA L57A (OATA L57A [6]): 34%; Relative activity, OATA L57A/W58A (OATA L57A/W58A [7]): 290%; fold increase in reaction rate compared to OATA L57A (OATA L57A/W58A [7]): 8; Relative activity, OATA L57A/W58A/V154A (OATA L57A/W58A/V154A [8]): 852%; fold increase in reaction rate compared to OATA L57A (OATA L57A/W58A/V154A [8]): 25
12 | CCCCC(=O)C(=O)O [2-oxohexanoic acid] | – | – | – | – | – | – | – | Relative activity, OATA L57A (OATA L57A [6]): 15%; Relative activity, OATA L57A/W58A (OATA L57A/W58A [7]): 49%; Relative activity, OATA L57A/W58A/V154A (OATA L57A/W58A/V154A [8]): 114%
13 | CCCCCCC(=O)C(=O)O [2-oxooctanoic acid] | – | – | – | – | – | – | – | Relative activity, OATA L57A (OATA L57A [6]): 2%; Relative activity, OATA L57A/W58A (OATA L57A/W58A [7]): 7%; Relative activity, OATA L57A/W58A/V154A (OATA L57A/W58A/V154A [8]): 21%
14 | CCCC(=O)C(=O)O [2-oxopentanoic acid] | – | – | – | – | – | – | – | Relative activity, OATA L57A (OATA L57A [6]): 40%; Relative activity, OATA L57A/W58A (OATA L57A/W58A [7]): 103%; Relative activity, OATA L57A/W58A/V154A (OATA L57A/W58A/V154A [8]): 206%
15 | CC(=O)C(C)O (centres unmarked) [3-hydroxy-2-butanone] | – | – | – | 20 | 29 | 23 | 32 | –
16 | CC(C)C(=O)C(=O)O [3-methyl-2-oxobutyric acid] | – | – | – | – | – | – | – | Relative activity, OATA L57A/W58A/V154A (OATA L57A/W58A/V154A [8]): 11%
17 | CC(N)c1ccc(F)cc1 (stereo not drawn) [4-Fluoro-α-methylbenzylamine] | – | 117 | 283 | – | – | – | – | –
18 | CC(=O)CCO [4-hydroxy-2-butanone] | – | – | – | 17 | 20 | 20 | 29 | –
19 | C[C@H](N)c1cccc2ccccc12 [(S)-1-(1-naphthyl)ethylamine] | – | 0.7 | 2 | – | – | – | – | Relative activity, OATA L57A/W58A (OATA L57A/W58A [9]): 18%; Relative activity, OATA L57A/W58A/V154A (OATA L57A/W58A/V154A [10]): 60%
20 | C[C@H](N)C1CC1 [(S)-1-Cyclopropylethylamine] | – | 79 | 233 | – | – | – | – | –
21 | N[C@H]1CCc2ccccc21 [(S)-1-aminoindan] | – | 100 | 54 | – | – | – | – | –
22 | CCCC[C@H](C)N [(S)-2-aminohexane] | – | 116 | 306 | – | – | – | – | –

Row | Compound | Relative activity to acetophenone, OATA W58L (OATA W58L [1]) [%] | Relative reactivity, OATA W58A (OATA W58A [3]) [%] | Relative reactivity, OATA W58L (OATA W58L [4]) [%] | Relative activity to acetophenone, OATA W58A (OATA W58A [5]) [%] | Relative activity to acetophenone, OATA W58V (OATA W58V) [%] | Relative activity to acetophenone, OATA W58I (OATA W58I) [%] | Relative activity to acetophenone, OATA W58M (OATA W58M) [%] | other results
23 | CCCCCC[C@H](C)N [(S)-2-aminooctane] | – | 99 | 255 | – | – | – | – | –
24 | COc1ccc([C@H](C)N)cc1 [(S)-4-methoxy-α-methylbenzylamine] | – | 44 | 98 | – | – | – | – | –
25 | Cc1ccc([C@H](C)N)cc1 [(S)-α,4-dimethylbenzylamine] | – | 45 | 78 | – | – | – | – | –
26 | CC[C@H](N)c1ccccc1 [(S)-α-ethylbenzylamine] | – | 44 | 20 | – | – | – | – | Relative activity, OATA L57A/W58A (OATA L57A/W58A [9]): 202%; Relative activity, OATA L57A/W58A/V154A (OATA L57A/W58A/V154A [10]): 707%
27 | CC(=O)c1ccc(C)cc1 [Ketone 1d, 4-methylacetophenone] | 51 | – | – | 56 | 52 | 74 | 68 | Relative activity, OATA L57C/W58L/I261A (OATA L57C/W58L/I261A): 1,096%; Conversion (%) OATAW58L (OATA W58L [2]): 91%
28 | COc1ccc(C(C)=O)cc1 [Ketone 1e, 4-methoxyacetophenone] | 34 | – | – | 30 | 30 | 38 | 42 | Relative activity, OATA L57C/W58L/I261A (OATA L57C/W58L/I261A): 4,017%
29 | O=C1CCc2ccccc21 [Ketone 1g, 1-indanone] | 2 | – | – | 15 | 17 | 16 | 20 | Relative activity, OATA L57A (OATA L57A [11]): 0.6%; Relative activity, OATA L57C/W58L/I261A (OATA L57C/W58L/I261A): 609%
30 | O=C1CCCc2ccccc21 [Ketone 1h, α-tetralone] | 0.7 | – | – | 19 | 12 | 16 | 17 | Relative activity, OATA L57C/W58L/I261A (OATA L57C/W58L/I261A): 243%
31 | CCCC(C)=O [Ketone 1j, 2-pentanone] | 141 | – | – | 15 | 28 | 21 | 25 | –
32 | CCCCC(C)=O [Ketone 1k, 2-hexanone] | 281 | – | – | 52 | 62 | 54 | 57 | Conversion (%) OATAW58L (OATA W58L [2]): 93%
33 | CCCCCCC(C)=O [Ketone 1l, 2-octanone] | 209 | – | – | 122 | 140 | 73 | 81 | Relative activity, OATA L57C/W58L/I261A (OATA L57C/W58L/I261A): 13,757%; Conversion (%) OATAW58L (OATA W58L [2]): 91%
34 | CC(=O)C(C)C [Ketone 1m, 3-methyl 2-butanone] | 78 | – | – | 21 | 29 | 26 | 29 | –
35 | CC(=O)CC(C)C [Ketone 1n, 4-methyl-2-pentanone] | 61 | – | – | 46 | 35 | 41 | 38 | –
36 | CCC(C)=O [Ketone 2-butanone, 2-butanone] | 78 | – | – | 16 | 17 | 20 | 25 | –
37 | Cc1cccc(C)c1OCC(C)N (centres unmarked) [Mexiletine, reference compound] | – | 197 | 284 | – | – | – | – | –
38 | CC(C)=O [acetone] | – | – | – | 19 | 18 | 18 | 19 | –
39 | CC(=O)CO [hydroxyacetone] | 23 | – | – | 31 | 32 | 42 | 44 | –
40 | COCC(C)=O [methoxyacetone] | 424 | – | – | 135 | 152 | 166 | 159 | –
41 | CC(=O)C(=O)O [pyruvate, pyruvic acid] | – | – | – | – | – | – | – | Fold-increase in kcat/KM (OATA W58L [12]): 0.41; decrease in specificity constant (kcat/KM) (OATA W58L [12]): 60%; fold increase in turnover number (kcat) (OATA W58L [12]): 7.1; weaker binding, fold decrease in KM as printed (OATA W58L [12]): 17.5; Relative activity, OATA L57A (OATA L57A [6]): 77%; Relative activity, OATA L57A/W58A (OATA L57A/W58A [7]): 707%; Relative activity, OATA L57A/W58A/V154A (OATA L57A/W58A/V154A [8]): 1,190%
42 | (S)-sec-butylamine | – | 66 | 266 | – | – | – | – | –
43 | cyclpropyl methyl ketone [Ketone 1o] | 4 | – | – | 14 | 14 | 17 | 19 | –
